The values that follow come from US6479435B1, “Diaryl ethers and processes for their preparation and herbicidal and desiccant compositions containing them” (ISK Americas Incorporated, priority 1997, dated 2002).

What is called pest or weed control is the degree to which the test organism was suppressed or injured, in per cent.

Holding throughout (assay): Pre-emerge greenhouse herbicide test, phytotoxicity rating
Holding throughout (assay type): in vivo

The subject of assay [1] is large crabgrass (Digitaria sanguinalis, DIGSA). The following applies: Digitaria sanguinalis, pre-emergence, 336 h, 14 days after application, rating scale 0-100; for pest or weed control at 125 g/ha: Rate 125 g al/ha; for pest or weed control at 500 g/ha: Rate 500 g al/ha. A digest of the protocol: (§1)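 Seeds sown in sandy loam mix one day before track-sprayer application of compounds in acetone at 125–1000 g ai/ha (187 l/ha), then surface-watered to incorporate and bottom-watered. Visual rating 14 days after application on a 0–100 scale (0 = no damage, 100 = all plants dead).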

Assay [2] deals with barnyardgrass (Echinochloa crusgalli, ECHCG). The following applies: Echinochloa crus-galli, pre-emergence, 336 h, 14 days after application, rating scale 0-100; for pest or weed control at 125 g/ha: Rate 125 g al/ha; for pest or weed control at 500 g/ha: Rate 500 g al/ha. A digest of the protocol: as §1
The test system of assay [3] is sicklepod (Cassia obtusifolia, CASOB). The following applies: Senna obtusifolia, pre-emergence, 336 h, 14 days after application, rating scale 0-100; for pest or weed control at 125 g/ha: Rate 125 g al/ha; for pest or weed control at 500 g/ha: Rate 500 g al/ha. A digest of the protocol:
as §1

Turning to `N#Cc1cccnc1Oc1cc(-n2c(=O)cc(C(F)(F)F)n(N)c2=O)c(F)cc1Cl` [Compound 9-9, 1-Amino-3-[4-chloro-2-fluoro-5-(3-cyano-2-pyridyloxy)phenyl]-6-trifluoromethyl-1,2,3,4-tetrahydropyrimidine-2,4-dione], the pest or weed control at 125 g/ha in assay [1], in assay [2] and in assay [3] was 100% throughout. In addition, the pest or weed control at 500 g/ha in assay [1], in assay [2] and in assay [3] was 100% each time.

Take `N#Cc1ccc(Oc2cc(-n3c(=O)cc(C(F)(F)F)n(N)c3=O)c(F)cc2Cl)nc1` [Compound 9-10, 1-Amino-3-[4-chloro-2-fluoro-5-(5-cyano-2-pyridyloxy)phenyl]-6-trifluoromethyl-1,2,3,4-tetrahydropyrimidine-2,4-dione]: the pest or weed control at 125 g/ha came out at 90% in assay [1], 90% in assay [2] and 100% in assay [3]. The pest or weed control at 500 g/ha in assay [1], in assay [2] and in assay [3] was 100% each time.

For the compound `Nn1c(C(F)(F)F)cc(=O)n(-c2cc(Oc3ccc([N+](=O)[O-])cn3)c(Cl)cc2F)c1=O` [Compound 9-11, 1-Amino-3-[4-chloro-2-fluoro-5-(5-nitro-2-pyridyloxy)phenyl]-6-trifluoromethyl-1,2,3,4-tetrahydropyrimidine-2,4-dione], the pest or weed control at 125 g/ha was found to be 30% in assay [1], 10% in assay [2] and 10% in assay [3]. Besides, the pest or weed control at 500 g/ha was determined as 95% in assay [1], 80% in assay [2] and 20% in assay [3].

Consider `Cc1nsc(Oc2cc(-n3c(=O)cc(C(F)(F)F)n(N)c3=O)c(F)cc2Cl)c1[N+](=O)[O-]` [Compound 9-14, 1-Amino-3-[4-Chloro-2-fluoro-5-(3-methyl-4-nitroisothiazol-5-yloxy)phenyl]-6-trifluoromethyl-1,2,3,4-tetrahydropyrimidine-2,4-dione], for which the values for the pest or weed control at 125 g/ha in assay [1], in assay [2] and in assay [3] were 100%, 95% and 100%, respectively. Besides, the values for the pest or weed control at 500 g/ha in assay [1], in assay [2] and in assay [3] were 100%, 90% and 90%, respectively.

As for `Nn1c(C(F)(F)F)cc(=O)n(-c2cc(Oc3ccccn3)c(Cl)cc2F)c1=O` [Compound 9-15, 1-amino-3-[4-chloro-2-fluoro-5-(2pyridyloxy)phenyl]-6-trifluoromethyl-1,2,3,4-tetrahydropyrimidine-2,4-dione], the pest or weed control at 125 g/ha worked out at 100% in assay [1], 100% in assay [2] and 95% in assay [3]. The pest or weed control at 500 g/ha in assay [1] worked out at 10%; in assay [2], 100%; in assay [3] it was 100%.

`Nn1c(C(F)(F)F)cc(=O)n(-c2cc(Oc3ncccn3)c(Cl)cc2F)c1=O` [Compound 9-16, 1-Amino-3-[4-chloro-2-fluoro-5-(2-pyrimidyloxy)phenyl]-6-trifluoromethyl-1,2,3,4-tetrahydropyrimidine-2,4-dione]: the pest or weed control at 125 g/ha in assay [1], in assay [2] and in assay [3] was 100% in each case. Also, the pest or weed control at 500 g/ha in assay [1], in assay [2] and in assay [3] was 100% throughout.

Turning to `Nn1c(C(F)(F)F)cc(=O)n(-c2cc(Oc3nccc(Cl)n3)c(Cl)cc2F)c1=O` [Compound 9-17, 1-Amino-3-[4-chloro-2-fluoro-5-(4-chloro-2-pyrimidyloxy)phenyl]-6-trifluoromethyl-1,2,3,4-tetrahydropyrimidine-2,4-dione], the pest or weed control at 125 g/ha in assay [1] was determined as 30%; in assay [2], 20%; in assay [3], 20%. For the same compound, the pest or weed control at 500 g/ha in assay [1] stood at 100%; in assay [2], 100%; in assay [3] it was 70%.

Turning to `Nn1c(C(F)(F)F)cc(=O)n(-c2cc(Oc3ccccc3[N+](=O)[O-])c(Cl)cc2F)c1=O` [Compound 9-21, 1-amino-3-[4-chloro-2-fluoro-5-(2-nitrophenoxy)phenyl]-6-trifluoromethyl-1,2,3,4-tetrahydropyrimidine-2,4-dione], the pest or weed control at 125 g/ha in assay [1] was determined as 100%; in assay [2] it was 90%; in assay [3], 30%. The values for the pest or weed control at 500 g/ha in assay [1], in assay [2] and in assay [3] were 100%, 100% and 90%, respectively.

As to `Nn1c(C(F)(F)F)cc(=O)n(-c2cc(Oc3ccc([N+](=O)[O-])cc3C(F)(F)F)c(Cl)cc2F)c1=O` [Compound 9-22, 1-Amino-3-[4-chloro-2-fluoro-5-(4-nitro-2-trifluoromethylphenoxy)phenyl]-6-trifluoromethyl-1,2,3,4-tetrahydropyrimidine-2,4-dione], the values for the pest or weed control at 125 g/ha in assay [1], in assay [2] and in assay [3] were 80%, 50% and 30%, respectively. The pest or weed control at 500 g/ha in assay [1] was found to be 100%; in assay [2], 90%; in assay [3] it was 80%.

Turning to `Nn1c(C(F)(F)F)cc(=O)n(-c2cc(Oc3cc([N+](=O)[O-])cc(C(F)(F)F)c3)c(Cl)cc2F)c1=O` [Compound 9-23, 1-Amino-3-[4-chloro-2-fluoro-5-(3-nitro-5-trifluoromethylphenoxy)phenyl]-6-trifluoromethyl-1,2,3,4-tetrahydropyrimidine-2,4-dione], the pest or weed control at 125 g/ha in assay [1] came to 10%; in assay [2] it was 10%; in assay [3], 0%. The pest or weed control at 500 g/ha worked out at 95% in assay [1], 70% in assay [2] and 10% in assay [3].

Turning to `Nn1c(C(F)(F)F)cc(=O)n(-c2cc(Oc3ccccc3C(F)(F)F)c(Cl)cc2F)c1=O` [Compound 9-24, 1-amino-3-[4-chloro-2-fluoro-5-(2-trifluoromethylphenoxy)phenyl]-6-trifluoromethyl-1,2,3,4-tetrahydropyrimidine-2,4-dione], the pest or weed control at 125 g/ha in assay [1] is 90%; in assay [2], 60%; in assay [3] it was 30%. In addition, the pest or weed control at 500 g/ha in assay [1] worked out at 100%; in assay [2], 70%; in assay [3] it was 0%.

On to `Nn1c(C(F)(F)F)cc(=O)n(-c2cc(Oc3ccccc3)c(Cl)cc2F)c1=O` [Compound 9-26, 1-Amino-3-[4-chloro-2-fluoro-5-phenoxyphenyl]-6-trifluoromethyl-1,2,3,4-tetrahydropyrimidine-2,4-dione], for which the pest or weed control at 125 g/ha in assay [1] turned out to be 100%; in assay [2], 95%; in assay [3] it was 95%. The pest or weed control at 500 g/ha in assay [1], in assay [2] and in assay [3] was 100% throughout.
